The values below come from patent US11066414B2, “Cot modulators and methods of use thereof” (Gilead Sciences, Inc., priority 2015, dated 2021).

Like-named read-outs stand apart in the source and are kept apart here.

The term EC50 denotes the midpoint of the concentration-response curve. In general, IC50 refers to the concentration that inhibits the measured activity by half.

One assay has as its system TNFα. The assay is described as follows: Cot Monocyte TNFα Cell Based Assay.
The next assay deals with Human Cot (Homo sapiens (Human), UniProt P41279). The assay is described as follows: High Throughput Cot Biochemical Assay. The settings on record: Cot HTRF (TR-FRET) biochemical assay. (In general: In TR-FRET formats the signal depends on donor and acceptor labels being close together.)
Sequence of Human Cot (P41279 30-397): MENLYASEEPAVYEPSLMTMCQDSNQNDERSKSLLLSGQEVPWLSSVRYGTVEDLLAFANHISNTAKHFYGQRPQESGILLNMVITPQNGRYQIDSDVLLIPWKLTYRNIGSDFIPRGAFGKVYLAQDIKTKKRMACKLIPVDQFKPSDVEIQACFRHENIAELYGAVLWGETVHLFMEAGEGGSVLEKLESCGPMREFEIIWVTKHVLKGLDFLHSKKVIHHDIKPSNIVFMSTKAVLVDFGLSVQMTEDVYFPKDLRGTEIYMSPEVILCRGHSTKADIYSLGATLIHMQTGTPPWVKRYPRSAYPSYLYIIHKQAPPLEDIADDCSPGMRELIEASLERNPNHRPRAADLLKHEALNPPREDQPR
Where [1] appears, read: Homo sapiens, Monocyte, read-out: EC50 TNF, LPS-stimulated human monocytes, TNFα.
Setting [2] is: read-out: EC50 TNF, LPS-stimulated human monocytes, TNFα.

As to `Cc1nc(F)ccc1[C@H](Nc1cc(Cl)c2ncc(C#N)c(NCC(C)(C)C)c2c1)c1nnn(C2CC2)c1F` [Example 663, (S)-8-chloro-6-(((1-cyclopropyl-5-fluoro-1H-1,2,3-triazol-4-yl)(6-fluoro-2-methylpyridin-3-yl)methyl)amino)-4-(neopentylamino)quinoline-3-carbonitrile], the EC50 in the assay with TNFα (setting [1]) stood at 62 nM. In addition, 3 nM corresponded to half-maximal inhibition on Human Cot (IC50 HTRF) (IC50).
Regarding `Cn1nccc1[C@H](Nc1cc(Cl)c2ncc(C#N)c(NCC(C)(C)C)c2c1)c1cn(C2(C(F)F)CC2)nn1` [Example 665, (S)-8-chloro-6-(((1-(1-(difluoromethyl)cyclopropyl)-1H-1,2,3-triazol-4-yl)(1-methyl-1H-pyrazol-5-yl)methyl)amino)-4-(neopentylamino)quinoline-3-carbonitrile], the EC50 in the assay with TNFα (setting [1]) is 198 nM. Moreover, on Human Cot (IC50 HTRF), the half-inhibitory concentration (IC50) amounted to 6 nM.
`Cc1nc(F)ccc1[C@H](Nc1cc(Cl)c2ncc(C#N)c(N[C@@H]3CCOCC3(C)C)c2c1)C1=CN(C2(C3CC3)CC2)NN1` [Example 669]: the EC50 in the assay on TNFα (setting [2]) was found to be 7 nM. For the same compound, the IC50 at Human Cot (read-out: IC50 HTRF) was determined as 1 nM.
As to `CC(C)(C)CNc1c(C#N)cnc2c(C#N)cc(N[C@H](c3cn(C4(C(F)(F)F)CC4)nn3)c3ccc(C#N)c4cnccc34)cc12` [Example 670, (S)-6-(((8-cyanoisoquinolin-5-yl)(1-(1-(trifluoromethyl)cyclopropyl)-1H-1,2,3-triazol-4-yl)methyl)amino)-4-(neopentylamino)quinoline-3,8-dicarbonitrile], the EC50 with TNFα (setting [1]) worked out at 102 nM. Also, it took 5 nM to reach half-maximal inhibition against Human Cot (IC50 HTRF) (IC50).
Regarding `CC(C)(C)CNc1c(C#N)cnc2c(C#N)cc(N[C@H](c3cn(C4(C(F)F)CC4)nn3)c3ccc(F)c4ncccc34)cc12` [Example 671], the EC50 with TNFα (setting [2]) was found to be 32 nM. For the same compound, the IC50 on Human Cot (read-out: IC50 HTRF) turned out to be 2 nM.
The like results for `CC(C)(C)CNc1c(C#N)cnc2c(C#N)cc(N[C@H](c3cn(C4(C(F)F)CC4)nn3)c3ccc(F)c4cnccc34)cc12` [Example 672] were, in that order, 22 nM and 2 nM.
For the compound `CC(C)(C)CNc1c(C#N)cnc2c(C#N)cc(N[C@H](c3cn(C4(C(F)(F)F)CC4)nn3)c3cncc4ccccc34)cc12` [Example 673, (S)-6-((isoquinolin-4-yl(1-(1-(trifluoromethyl)cyclopropyl)-1H-1,2,3-triazol-4-yl)methyl)amino)-4-(neopentylamino)quinoline-3,8-dicarbonitrile], the EC50 in the assay on TNFα (setting [1]) is 808 nM. The compound also came in with a 50% inhibitory concentration (IC50) against Human Cot (IC50 HTRF) of 142 nM.
The like results for `Cc1nc([C@H](Nc2cc(C#N)c3ncc(C#N)c(NCC(C)(C)C)c3c2)c2cn(C3(C(F)F)CC3)nn2)c(C)o1` [Example 674, (S)-6-(((1-(1-(difluoromethyl)-cyclopropyl)-1H-1,2,3-triazol-4-yl)(2,5-dimethyloxazol-4-yl)methyl)amino)-4-(neopentylamino)quinoline-3,8-dicarbonitrile] were, in that order, 301 nM and 22 nM.
In the case of `Cc1nc(F)ccc1[C@H](Nc1cc(C#N)c2ncc(C#N)c(N[C@@H]3CCOCC3(C)C)c2c1)c1cn(C2(C3CC3)CC2)nn1` [Example 675], the EC50 in the assay with TNFα (setting [2]) came to 7 nM. Also, on Human Cot (read-out: IC50 HTRF), the IC50 was found to be 1 nM.
`CC(C)(C)CNc1c(C#N)cnc2c(Cl)cc(N[C@H](c3cn(C4(C(F)(F)F)CC4)nn3)c3cccc4c(=O)[nH]ccc34)cc12` [Example 676, (S)-8-chloro-4-(neopentylamino)-6-(((1-oxo-1,2-dihydroisoquinolin-5-yl)(1-(1-(trifluoromethyl)cyclopropyl)-1H-1,2,3-triazol-4-yl)methyl)amino)quinoline-3-carbonitrile]: the EC50 in the assay on TNFα (setting [1]) is 112 nM. This compound also gave an IC50 on Human Cot (IC50 HTRF) of 6 nM.
For the compound `Cn1nccc1[C@H](Nc1cc(C#N)c2ncc(C#N)c(NCC(C)(C)C)c2c1)c1cn(C2(C(F)F)CC2)nn1` [Example 677, (S)-6-(((1-(l-(difluoromethyl)-cyclopropyl)-1H-1,2,3-triazol-4-yl)(1-methyl-1H-pyrazol-5-yl)methyl)amino)-4-(neopentylamino)quinoline-3,8-dicarbonitrile], the EC50 in the assay on TNFα (setting [2]) worked out at 133 nM. Besides, the IC50 on Human Cot (read-out: IC50 HTRF) came out at 4 nM.
Regarding `Cn1nccc1[C@H](Nc1cc(C#N)c2ncc(C#N)c(NCC(C)(C)C)c2c1)c1cn(C2(C(F)(F)F)CC2)nn1` [Example 678, (S)-6-(((1-methyl-1H-pyrazol-5-yl)(1-(1-(trifluoromethyl)cyclopropyl)-1H-1,2,3-triazol-4-yl)methyl)amino)-4-(neopentylamino)quinoline-3,8-dicarbonitrile], the EC50 in the assay on TNFα (setting [1]) was determined as 131 nM. Further, at Human Cot (IC50 HTRF), half-maximal inhibition (IC50) required 5 nM.
The corresponding values for `Cc1nc(F)ccc1[C@H](Nc1cc(C#N)c2ncc(C#N)c(NCC(C)(C)C)c2c1)c1nnn(C2CC2)c1Cl` [Example 680, (S)-6-(((5-chloro-1-cyclopropyl-1H-1,2,3-triazol-4-yl)(6-fluoro-2-methylpyridin-3-yl)methyl)amino)-4-(neopentylamino)quinoline-3,8-dicarbonitrile] are 98 nM and 3 nM.
The corresponding values for `Cc1nc(F)ccc1[C@H](Nc1cc(C#N)c2ncc(C#N)c(NCC(C)(C)C)c2c1)c1nnn(C2CC2)c1F` [Example 681, (S)-6-(((1-cyclopropyl-5-fluoro-1H-1,2,3-triazol-4-yl)(6-fluoro-2-methylpyridin-3-yl)methyl)amino)-4-(neopentylamino)quinoline-3,8-dicarbonitrile] are 26 nM and 2 nM.
With `CC(C)(C)CNc1c(C#N)cnc2c(Cl)cc(N[C@H](c3cn(C4(C5CC5)CC4)nn3)c3cccc4cnccc34)cc12` [Example 682, (S)-6-(((4-(1-(1-bi(cyclopropan)]-1-yl)-1H-1,2,3-triazol-4-yl)(isoquinolin-5-yl)methyl)amino)-8-chloro-4-(neopentylamino)quinoline-3-carbonitrile], in the assay with TNFα (setting [2]), the EC50 was 66 nM. In addition, the IC50 at Human Cot (read-out: IC50 HTRF) was 7 nM.
On to `Cc1ccc([C@H](Nc2cc(Cl)c3ncc(C#N)c(NCC(C)(C)C)c3c2)c2cn(C3(C(F)(F)F)CC3)nn2)c(F)n1` [Example 688, (S)-8-chloro-6-(((2-fluoro-6-methylpyridin-3-yl)(1-(1-(trifluoromethyl)-cyclopropyl)-1H-1,2,3-triazol-4-yl)methyl)amino)-4-(neopentylamino)quinoline-3-carbonitrile], for which the EC50 in the assay with TNFα (setting [1]) was 437 nM. Besides, the IC50 on Human Cot (IC50 HTRF) stood at 30 nM.
As to `Cc1ccc([C@H](Nc2cc(C#N)c3ncc(C#N)c(NCC(C)(C)C)c3c2)c2cn(C3(C(F)(F)F)CC3)nn2)c(C)n1` [Example 689, (S)-6-(((2,6-dimethylpyridin-3-yl)(1-(1′-(trifluoromethyl)cyclopropyl)-1H-1,2,3-triazol-4-yl)methyl)amino)-4-(neopentylamino)quinoline-3,8-dicarbonitrile], the EC50 in the assay on TNFα (setting [2]) was found to be 81 nM. Also, at Human Cot (read-out: IC50 HTRF), the IC50 was 9 nM.
Consider `Cc1ccc([C@H](Nc2cc(C#N)c3ncc(C#N)c(NCC(C)(C)C)c3c2)c2cn(C3(C(F)(F)F)CC3)nn2)c(F)n1` [Example 690, (S)-6-(((2-fluoro-6-methylpyridin-3-yl)(1-(1-(trifluoromethyl)cyclopropyl)-1H-1,2,3-triazol-4-yl)methyl)amino)-4-(neopentylamino)quinoline-3,8-dicarbonitrile], for which, in the assay with TNFα (setting [1]), the EC50 came out at 250 nM. For the same compound, half-maximal inhibition against Human Cot (IC50 HTRF) (IC50) was put at 21 nM.
The corresponding values for `CC(C)(C)CNc1c(C#N)cnc2c(Cl)cc(N[C@H](c3cn(C4(C5CC5)CC4)nn3)c3cccc4ncccc34)cc12` [Example 691, (S)-6-(((1-([1,1′-bi(cyclopropan)]-1-yl)-1H-1,2,3-triazol-4-yl)(quinolin-5-yl)methyl)amino)-8-chloro-4-(neopentylamino)quinoline-3-carbonitrile] are 66 nM and 6 nM.
`CC(C)(C)CNc1c(C#N)cnc2c(Cl)cc(N[C@H](c3cn([C@@H]4C[C@@H]4F)nn3)c3cccc4ncccc34)cc12` [Example 692, 8-chloro-6-(((SH l-((lR,2S)-2-fluorocyclopropyl)-1H-1,2,3-triazol-4-yl)(quinolin-5-yl)methyl)amino)-4-(neopentylamino)quinoline-3-carbonitrile]: in the assay on TNFα (setting [2]), the EC50 was 38 nM. The IC50 on Human Cot (read-out: IC50 HTRF) is 3 nM.
On to `CC(C)(C)CNc1c(C#N)cnc2c(Cl)cc(N[C@H](c3cn(C(C)(C)CF)nn3)c3cccc4ncccc34)cc12` [Example 694, (S)-8-chloro-6-(((1-(1-fluoro-2-methylpropan-2-yl)-1H-1,2,3-triazol-4-yl)(quinolin-5-yl)methyl)amino)-4-(neopentylamino)quinoline-3-carbonitrile], for which, in the assay with TNFα (setting [1]), the EC50 turned out to be 84 nM. On Human Cot (IC50 HTRF), this compound returned an IC50 of 7 nM.
The corresponding values for `CC(C)(C)CNc1c(C#N)cnc2c(Cl)cc(N[C@@H](c3ccc4cccnc4c3)c3cn(C4(C(F)(F)F)CC4)nn3)cc12` [Example 698, (S)-8-chloro-4-(neopentylamino)-6-((quinolin-7-yl(1-(1-(trifluoromethyl)cyclopropyl)-1H-1,2,3-triazol-4-yl)methyl)amino)quinoline-3-carbonitrile] are 684 nM and 27 nM.
`CC(C)(C)CNc1c(C#N)cnc2c(C#N)cc(N[C@H](c3cn(C4(C(F)(F)F)CC4)nn3)c3cccc4c(=O)[nH]ccc34)cc12` [Example 700, (S)-4-(neopentylamino)-6-(((1-oxo-1,2-dihydroisoquinolin-5-yl)(4-(1-1-(trifluoromethyl)-cyclopropyl)-1H-1,2,3-triazol-4-yl)methyl)amino)quinoline-3,8-dicarbonitrile]: the EC50 in the assay with TNFα (setting [2]) was 179 nM. The IC50 at Human Cot (read-out: IC50 HTRF) was 2 nM.
Take `Cc1ncsc1[C@H](Nc1cc(Cl)c2ncc(C#N)c(NCC(C)(C)C)c2c1)c1cn(C2(C3CC3)CC2)nn1` [Example 702, (R)-6-(((1-([1,1′-bi(cyclopropan)]-1-yl)-1H-1,2,3-triazol-4-yl)(4-methylthiazol-5-yl)methyl)amino)-8-chloro-4-(neopentylamino)quinoline-3-carbonitrile]: the EC50 in the assay on TNFα (setting [1]) came to 188 nM. The same compound yielded an IC50 against Human Cot (IC50 HTRF) of 4 nM.
